# Data from patent US20020137929A1, “1 - (3-heterocyclylphenyl) isothiourea, -isourea, -guanidine and -amidine herbicidal agents” (Intellectual Property Department, BASF Aktiengesellschaft, priority 1998, published 2002).
# Columns and labels:
# CASOB (Sicklepod) = assay: Preemergence herbicidal evaluation; assay type: in vivo, Cassia obtusifolia; settings: rated 4-5 weeks after treatment
# Procedure, shortened: (§1)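 Seeds were planted in potting soil in cups, then sprayed preemergence with the test compound in aqueous acetone at about 0.0156 to 0.500 kg per hectare. Cups were kept under greenhouse conditions and visually rated 4–5 weeks after treatment on a 0–9 scale against an untreated control.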
# AMBEL (Ragweed, Common) [1] = assay: Preemergence herbicidal evaluation; assay type: in vivo, Ambrosia artemisifolia; settings: rated 4-5 weeks after treatment
# Procedure, shortened: as §1
# [2] = system: IPOHE (Morningglory, Ivyleaf); assay: Postemergence herbicidal evaluation; assay type: in vivo, Ipomoea hederacea; settings: postemergence
# Procedure, shortened: (§2)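 Compound is applied as a foliar spray to seedlings about two weeks old, formulated in equal parts acetone and water with 0.5% TWEEN 20 and delivered at 40 psi to give about 0.0156–0.500 kg per hectare. Injury is rated visually 0–9 after four to five weeks.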
# [3] = system: ECHORC (Watergrass (Calif.)); assay: Postemergence weed control under flooded paddy conditions; assay type: in vivo, Echinochloa oryzoides; settings: postemergence weeds, 3-4 weeks after treatment
# Procedure, shortened: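 With weeds 3 to 5 cm tall and rice at the 1.5 to 2.5 leaf stage, containers were flooded and water held 1.5 to 3 cm above soil. Compounds in 50/50 v/v aqueous/acetone went into the flood water at about 0.0313 to 0.500 kg/ha a.i. Effects were visually rated 0–9 against controls after three to four weeks in the greenhouse.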
# ZEAMX (Corn, Field) = assay: Postemergence herbicidal evaluation; assay type: in vivo, Zea mays; settings: postemergence
# Procedure, shortened: as §2
# [4] = system: GLXMAW (Soybean, Williams); assay: Postemergence herbicidal evaluation; assay type: in vivo, Glycine max, (L.) Merr. cv Williams; settings: postemergence
# Procedure, shortened: as §2
# [5] = system: SAGPY (Arrowhead (Pygmaea)); assay: Preemergence weed control under flooded paddy conditions; assay type: in vivo, Sagittaria pygmaea; settings: rated 3-4 weeks after treatment
# Procedure, shortened: (§3)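 Greenhouse paddy assay. Acetone/water (50/50 v/v) solutions dosed into flood water, equivalent to about 0.0313 to 0.500 kg/ha active ingredient, over seeds planted 0.5 cm deep in silt loam. Score: 0-9 visual, based on stand, vigor, malformation, size and chlorosis, 3 to 4 weeks after treatment.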
# ABUTH (Velvetleaf) = assay: Preemergence herbicidal evaluation; assay type: in vivo, Abutilon theophrasti; settings: rated 4-5 weeks after treatment
# Procedure, shortened: as §1
# CYPSE (Flatsedge) = assay: Preemergence weed control under flooded paddy conditions; assay type: in vivo, Cyperus serotinus; settings: rated 3-4 weeks after treatment
# Procedure, shortened: as §3
# [6] = system: GLXMAW (Soybean, Williams); assay: Preemergence herbicidal evaluation; assay type: in vivo, Glycine max, (L.) Merr. cv Williams; settings: rated 4-5 weeks after treatment
# Procedure, shortened: as §1
# SETVI (Foxtail, Green) = assay: Preemergence herbicidal evaluation; assay type: in vivo, Setaria viridis; settings: rated 4-5 weeks after treatment
# Procedure, shortened: as §1
# AMBEL (Ragweed, Common) [7] = assay: Postemergence herbicidal evaluation; assay type: in vivo, Ambrosia artemisifolia; settings: postemergence
# Procedure, shortened: as §2
# ECHCG (Barnyardgrass) = assay: Preemergence herbicidal evaluation; assay type: in vivo, Echinochloa crus-galli; settings: rated 4-5 weeks after treatment
# Procedure, shortened: as §1
# GALAP (Galium) = assay: Preemergence herbicidal evaluation; assay type: in vivo, Galium aparine; settings: rated 4-5 weeks after treatment
# Procedure, shortened: as §1
structure (smiles),measurement,setting,value
CCC1SC(=Nc2cc(-n3c(=O)cc(C(F)(F)F)n(C)c3=O)c(F)cc2Cl)N(C)C1=O (stereo not drawn) [Compound 10],CASOB preemergence herbicidal rating,CASOB (Sicklepod); rate 0.0156 kg/ha,0.0
same,CASOB preemergence herbicidal rating,CASOB (Sicklepod); rate 0.0313 kg/ha,0.7
same,CASOB preemergence herbicidal rating,CASOB (Sicklepod); rate 0.0625 kg/ha,0.7
same,CASOB preemergence herbicidal rating,CASOB (Sicklepod); rate 0.1250 kg/ha,1.3
same,CASOB preemergence herbicidal rating,CASOB (Sicklepod); rate 0.2500 kg/ha,3.3
same,AMBEL preemergence herbicidal rating,"AMBEL (Ragweed, Common) [1]; rate 0.0156 kg/ha",0.3
same,AMBEL preemergence herbicidal rating,"AMBEL (Ragweed, Common) [1]; rate 0.0313 kg/ha",0.3
same,AMBEL preemergence herbicidal rating,"AMBEL (Ragweed, Common) [1]; rate 0.0625 kg/ha",3.3
same,AMBEL preemergence herbicidal rating,"AMBEL (Ragweed, Common) [1]; rate 0.1250 kg/ha",4.7
same,AMBEL preemergence herbicidal rating,"AMBEL (Ragweed, Common) [1]; rate 0.2500 kg/ha",6.3
same,IPOHE herbicidal rating,[2]; rate 0.0156 kg/ha,3.0
same,IPOHE herbicidal rating,[2]; rate 0.0313 kg/ha,7.0
same,IPOHE herbicidal rating,[2]; rate 0.0625 kg/ha,9.0
same,IPOHE herbicidal rating,[2]; rate 0.1250 kg/ha,8.0
same,Herbicidal rating ECHORC,[3]; rate 0.0313 kg/ha,0.0
same,Herbicidal rating ECHORC,[3]; rate 0.0625 kg/ha,1.0
same,Herbicidal rating ECHORC,[3]; rate 0.1250 kg/ha,2.0
same,Herbicidal rating ECHORC,[3]; rate 0.2500 kg/ha,2.0
same,ZEAMX herbicidal rating,"ZEAMX (Corn, Field); rate 0.0156 kg/ha",4.3
same,ZEAMX herbicidal rating,"ZEAMX (Corn, Field); rate 0.0313 kg/ha",5.3
same,ZEAMX herbicidal rating,"ZEAMX (Corn, Field); rate 0.0625 kg/ha",5.3
same,ZEAMX herbicidal rating,"ZEAMX (Corn, Field); rate 0.1250 kg/ha",5.3
same,GLXMAW herbicidal rating,[4]; rate 0.0156 kg/ha,4.0
same,GLXMAW herbicidal rating,[4]; rate 0.0313 kg/ha,4.5
same,GLXMAW herbicidal rating,[4]; rate 0.0625 kg/ha,5.3
same,GLXMAW herbicidal rating,[4]; rate 0.1250 kg/ha,5.8
same,Herbicidal rating SAGPY,[5]; 0.0313 kg/ha,0.0
same,Herbicidal rating SAGPY,[5]; 0.0625 kg/ha,0.0
same,Herbicidal rating SAGPY,[5]; 0.1250 kg/ha,0.0
same,Herbicidal rating SAGPY,[5]; 0.2500 kg/ha,0.0
same,ABUTH preemergence herbicidal rating,ABUTH (Velvetleaf); rate 0.0156 kg/ha,5.5
same,ABUTH preemergence herbicidal rating,ABUTH (Velvetleaf); rate 0.0313 kg/ha,8.0
same,ABUTH preemergence herbicidal rating,ABUTH (Velvetleaf); rate 0.0625 kg/ha,9.0
same,ABUTH preemergence herbicidal rating,ABUTH (Velvetleaf); rate 0.1250 kg/ha,9.0
same,ABUTH preemergence herbicidal rating,ABUTH (Velvetleaf); rate 0.2500 kg/ha,9.0
same,Herbicidal rating CYPSE,CYPSE (Flatsedge); 0.0313 kg/ha,0.0
same,Herbicidal rating CYPSE,CYPSE (Flatsedge); 0.0625 kg/ha,0.0
same,Herbicidal rating CYPSE,CYPSE (Flatsedge); 0.1250 kg/ha,0.0
same,Herbicidal rating CYPSE,CYPSE (Flatsedge); 0.2500 kg/ha,0.0
same,GLXMAW preemergence herbicidal rating,[6]; rate 0.0156 kg/ha,2.0
same,GLXMAW preemergence herbicidal rating,[6]; rate 0.0313 kg/ha,2.3
same,GLXMAW preemergence herbicidal rating,[6]; rate 0.0625 kg/ha,3.7
same,GLXMAW preemergence herbicidal rating,[6]; rate 0.1250 kg/ha,6.7
same,GLXMAW preemergence herbicidal rating,[6]; rate 0.2500 kg/ha,7.0
same,SETVI preemergence herbicidal rating,"SETVI (Foxtail, Green); rate 0.0156 kg/ha",2.3
same,SETVI preemergence herbicidal rating,"SETVI (Foxtail, Green); rate 0.0313 kg/ha",5.7
same,SETVI preemergence herbicidal rating,"SETVI (Foxtail, Green); rate 0.0625 kg/ha",9.0
same,SETVI preemergence herbicidal rating,"SETVI (Foxtail, Green); rate 0.1250 kg/ha",9.0
same,SETVI preemergence herbicidal rating,"SETVI (Foxtail, Green); rate 0.2500 kg/ha",9.0
same,AMBEL herbicidal rating,"AMBEL (Ragweed, Common) [7]; rate 0.0156 kg/ha",0.5
same,AMBEL herbicidal rating,"AMBEL (Ragweed, Common) [7]; rate 0.0313 kg/ha",1.0
same,AMBEL herbicidal rating,"AMBEL (Ragweed, Common) [7]; rate 0.0625 kg/ha",2.0
same,AMBEL herbicidal rating,"AMBEL (Ragweed, Common) [7]; rate 0.1250 kg/ha",4.5
same,ECHCG preemergence herbicidal rating,ECHCG (Barnyardgrass); rate 0.0156 kg/ha,2.0
same,ECHCG preemergence herbicidal rating,ECHCG (Barnyardgrass); rate 0.0313 kg/ha,4.0
same,ECHCG preemergence herbicidal rating,ECHCG (Barnyardgrass); rate 0.0625 kg/ha,7.0
same,ECHCG preemergence herbicidal rating,ECHCG (Barnyardgrass); rate 0.1250 kg/ha,9.0
same,ECHCG preemergence herbicidal rating,ECHCG (Barnyardgrass); rate 0.2500 kg/ha,9.0
same,GALAP preemergence herbicidal rating,GALAP (Galium); rate 0.0156 kg/ha,0.5
same,GALAP preemergence herbicidal rating,GALAP (Galium); rate 0.0313 kg/ha,2.0
same,GALAP preemergence herbicidal rating,GALAP (Galium); rate 0.0625 kg/ha,4.5
same,GALAP preemergence herbicidal rating,GALAP (Galium); rate 0.1250 kg/ha,9.0
same,GALAP preemergence herbicidal rating,GALAP (Galium); rate 0.2500 kg/ha,9.0
